Four compounds from US20240002952A1, “METHOD FOR IN VITRO DIAGNOSIS OF MUCOSITIS IN CANCER PATIENTS UNDERGOING ANTITUMOR THERAPY” (ISTITUTI FISIOTERAPICI OSPITALIERI, priority 2020, published 2024) can be followed below.

For data set [1], the system named is Primary gingival keratinocytes.
For data set [2], the system named is Primary epidermal keratinocytes (HEKa).

Take `O=c1[nH]cc(F)c(=O)[nH]1` [5-FLUOROURACILE, 5-fluorouracile]: the “CC50 Value Primary gingival keratinocytes” value in data set [1] is reported as “Not calculable”. In data set [2], the “CC50 Value Primary epidermal keratinocytes (HEKa)” value was “Not calculable”.

As for `Nc1ncn([C@@H]2O[C@H](CO)[C@@H](O)[C@H]2O)c(=O)n1` [AZACYTIDINE, azacytidine], the figures for the CC50 in data set [1] and in data set [2] were 1.8 µM and 51.2 µM, respectively.

Compound `CCCCCOC(=O)Nc1nc(=O)n([C@@H]2O[C@H](C)[C@@H](O)[C@H]2O)cc1F` [CAPECITABIN, capecitabin] came in with a CC50 in data set [1] of 103 µM. For the same compound, the “CC50 Value Primary epidermal keratinocytes (HEKa)” value in data set [2] is reported as “Not calculable”.

As to `O=C1[O][Pt]2([NH][C@@H]3CCCC[C@H]3[NH]2)[O]C1=O` [OXALIPLATIN, oxaliplatin], the results for the CC50 in data set [1] and in data set [2] were 46 µM and 32.3 µM, respectively.
